Test results published in patent US11773381B2, “Cell penetrating peptide, conjugate comprising same, and composition comprising conjugate” (GemVax & KAEL CO., LTD., priority 2012, dated 2023).

The sequences below were run on HeLa cell (assay: Cell penetration of pep(CPP)-FITC conjugates in HeLa cell line, flow cytometry (FACS)). Conditions: HeLa cells, 20 μM of each carrier peptide combined with FITC, 37° C. for an hour, control cells treated only FITC.
Format: cell-based, Homo sapiens
Experimental: Homo sapiens cervix adenocarcinoma cell line as HeLa cell lines were purchased from ATCC (American Type Cell Culture). The cells were cultured in MEM supplemented with 10% fetal bovine serum (Invitrogen, USA), Earle's salts, non-essential amino acids, sodium pyruvate and 100 μg/ml penicillin and 10 units/ml streptomycin and cultured at 37° C., 5% CO2 incubator.
Flow cytometry and Confocal microscope analysis were performed to compare the between degree of cellular uptake of the cells were treated with SEQ ID NO: 1 to SEQ ID NO: 156, pep (CPP) and control.
The cell line was divided in a 6-well plate and cultured in a medium containing 10% fetal bovine serum (Invitrogen, USA), […] at 37° C., 5% CO2 incubator for 12 hours. After washing the cell line with PBS, starvation was induced in a Minimum Essential Medium for an hour. 20 μM of each carrier peptide was treated and cultured at 37° C. for an hour. After repeating the step of washing the cells with PBS for three times, Trypsin-EDTA was treated form 10 mins at 37° C. to separate the carrier peptide on the outside of the cell. cells were collected with refrigerated PBS and centrifugation was performed to repeat the step of washing the cells for three times. After then, the cells were suspended in 0.5 ml of PBS containing 4% Paraformaldehyde and fluorescence of the cells was analyzed using FACS Calibur (Becton Dickinson). The cellular uptake aspect of control and various peptides combined with FITC was compared and analyzed by MFI (Mean Fluorescence Intensity).
Analysis results shown in FIG. 1 to FIG. 23 are given in detail in Table 3 below.

Sequence | cellular uptake, MFI (Mean Fluorescence Intensity)
AAEHRLREEILAKFLHWLMS (listed as Homo sapiens) [pep134] | 78.05 ± 2.26
AAGPLPSEAVQWLCHQAFLL (listed as Homo sapiens) [pep103] | 126.88 ± 2.14
AERLTSRVKALFSVL (listed as Homo sapiens) [pep10] | 559.78 ± 3.41
AHGHVRKAFKSHVSTLTDLQ (listed as Homo sapiens) [pep145] | 11.97 ± 0.78
ALFSVLNYE (listed as Homo sapiens) [pep29] | 33.5 ± 2.48
ALFSVLNYER (listed as Homo sapiens) [pep15] | 35.61 ± 1.29
ALFSVLNYERARRPGLLGASVLGLDDIHRA [pep2] | 37.6 ± 1.89
ALLTSRLRFI (listed as Homo sapiens) [pep5] | 19.06 ± 1.33
AQCPYGVLLKTHCPLRAAVT (listed as Homo sapiens) [pep70] | 21.82 ± 1.76
ARRPGLLG (listed as Homo sapiens) [pep33] | 14.36 ± 1.63
ARRPGLLGA (listed as Homo sapiens) [pep26] | 14.81 ± 1.77
ATQARPPPHASGPRRRLGCE (listed as Homo sapiens) [pep59] | 18.58 ± 0.52
CGPPLYQLGAATQARPPPHA (listed as Homo sapiens) [pep116] | 20.5 ± 0.97
CPPVYAETKHFLYSSGDKEQ (listed as Homo sapiens) [pep66] | 20.7 ± 2.57
DARPPPAAPSFRQVSCLKEL (listed as Homo sapiens) [pep53] | 16.16 ± 0.66
DEALGGTAFVQMPAHGLFPW (listed as Homo sapiens) [pep153] | 31.72 ± 1.74
EAEVRQHREARPALL (listed as Homo sapiens) [pep40] | 11.63 ± 1.11
EARPALLTSRLRFIPKPDGL (listed as Homo sapiens) [pep138] | 16.43 ± 0.91
EDTDPRRLVQLLRQHSSPWQ (listed as Homo sapiens) [pep72] | 17.57 ± 2.31
ERARRPGL (listed as Homo sapiens) [pep32] | 11.98 ± 2.92
ERARRPGLL (listed as Homo sapiens) [pep22] | 13.56 ± 0.23
FIPKPDGLRPIVNMD (listed as Homo sapiens) [pep42] | 20.82 ± 1.93
FLYSSGDKEQLRPSFLLSSL (listed as Homo sapiens) [pep124] | 23.74 ± 3.62
FSVLNYERAR (listed as Homo sapiens) [pep18] | 18.7 ± 1.21

Sequence | cellular uptake, MFI (Mean Fluorescence Intensity)
FVLRVRAQDPPPELY (listed as Homo sapiens) [pep46] | 24.67 ± 2.02
GAAPEPERTPVGQGSWAHPG (listed as Homo sapiens) [pep62] | 14.55 ± 3.71
GARTFRREKRAERLTSRVKA (listed as Homo sapiens) [pep82] | 22.44 ± 3.32
GASVLGLDDI (listed as Homo sapiens) [pep14] | 10.51 ± 3.71
GLLGASVL (listed as Homo sapiens) [pep34] | 14.41 ± 3.44
GLLGASVLG (listed as Homo sapiens) [pep30] | 14.37 ± 1.73
GLLGASVLGL (listed as Homo sapiens) [pep4] | 28.35 ± 2.54
GVPLGLPAPGARRRGGSASR (listed as Homo sapiens) [pep118] | 14.69 ± 0.33
KLQSIGIRQHLKRVQ (listed as Homo sapiens) [pep39] | 21.4 ± 0.99
KLTRHRVTYVPLLGSLRTAQ (listed as Homo sapiens) [pep104] | 36.74 ± 1.11
KMSVRDCAWLRRSPGVGCVP (listed as Homo sapiens) [pep133] | 46.79 ± 1.92
KSVWSKLQSIGIRQH (listed as Homo sapiens) [pep48] | 26.51 ± 2.36
KTFLRTLVRGVPEYGCVVNL (listed as Homo sapiens) [pep94] | 117.76 ± 4.24
LCSLCYGDMENKLFAGIRRD (listed as Homo sapiens) [pep92] | 19.91 ± 0.51
LDDIHRAWRTFVLRV (listed as Homo sapiens) [pep45] | 203.77 ± 3.26
LFFYRKSVWSKLQSI [pep38] | 380.4 ± 2.6
LFSVLNYERARRPGLLGASV (listed as Homo sapiens) [pep83] | 24.57 ± 1.36
LGASVLGL (listed as Homo sapiens) [pep36] | 15.37 ± 2.65
LGPQGWRLVQRGDPAAFRAL (listed as Homo sapiens) [pep109] | 12.46 ± 1.32
LKRVQLRELSEAEVRQ (listed as Homo sapiens) [pep49] | 13.91 ± 0.51
LLGASVLGL (listed as Homo sapiens) [pep12] | 22 ± 2.6
LLVTPHLTHAKTFLRLTVRG (LLVTPHLTHAKTFLRTLVRG; listed as Homo sapiens) [pep151] | 23.52 ± 0.56
LRFIPKPDGLRPIVNMDYVV (listed as Homo sapiens) [pep81] | 29.69 ± 2.49
LRRVGDDVLVHLIARCALFV (LRRVGDDVLVHLLARCALFV; listed as Homo sapiens) [pep57] | 568.02 ± 3.01

Sequence | cellular uptake, MFI (Mean Fluorescence Intensity)
LSEAEVRQHREARPALLTSR (listed as Homo sapiens) [pep80] | 12.45 ± 0.46
LVAPSCAYWVCGPPLYQLGA (LVAPSCAYQVCGPPLYQLGA; listed as Homo sapiens) [pep58] | 19.87 ± 0.94
MPRAPRCRAV (listed as Homo sapiens) [pep107] | 23.11 ± 0.56
MPRAPRCRAVRSLLRSHYRE (listed as Homo sapiens) [pep50] | 2228.76 ± 3.68
NKLFAGIRRDGLLLRLVDDF (listed as Homo sapiens) [pep150] | 17.46 ± 0.24
NYERARRPGL (listed as Homo sapiens) [pep19] | 13.04 ± 3.41
PAAGVCAREKPQGSVAAPEE (listed as Homo sapiens) [pep71] | 16.61 ± 0.88
PALPSDFKTILD (listed as Homo sapiens) [pep106] | 12.45 ± 0.38
PGLLGASVL (listed as Homo sapiens) [pep27] | 9.89 ± 2.51
PPEAFTTSVRSYLPNTVTDA (listed as Homo sapiens) [pep113] | 16.09 ± 2.5
PQDRLTEVIASIIKP (listed as Homo sapiens) [pep47] | 15.85 ± 1.03
PYMRQFVAHLQETSPLRDAV (listed as Homo sapiens) [pep146] | 18.32 ± 1.82
QETSPLRDAVVIEQSSSLNE (listed as Homo sapiens) [pep89] | 13.54 ± 0.75
QMPAHGLFPWCGLLLDTRTL (listed as Homo sapiens) [pep96] | 308.53 ± 3.61
RARRPGLL (listed as Homo sapiens) [pep35] | 15.54 ± 1.38
RAWNHSVREAGVPLGLPAPG (listed as Homo sapiens) [pep60] | 15.79 ± 1.63
RFHACVLQLPFHQQVWKNPT (listed as Homo sapiens) [pep158] | 87.75 ± 2.51
RGDPAAFRALVAQCLVCVPW (listed as Homo sapiens) [pep52] | 16.67 ± 2.22
RGKSYVQCQGIPQGSILSTL (listed as Homo sapiens) [pep91] | 24.41 ± 2.79
RKTVVNFPVEDEALGGTAFV (listed as Homo sapiens) [pep95] | 10.92 ± 0.07
RLTSRVKAL (listed as Homo sapiens) [pep7] | 9.51 ± 2.95
RLVPPGLWGSRHNERRFLRN (listed as Homo sapiens) [pep131] | 32.51 ± 2.38
RPALLTSRL (listed as Homo sapiens) [pep6] | 15.81 ± 1.59
